Measurements reported in paper PMC11763590, “Fluorescence Polarization Immunoassay for Rapid, Sensitive Detection of the Herbicide 2,4-Dichlorophenoxyacetic Acid in Juice and Water Samples” (Biosensors, 2025).

Target: monoclonal antibody against 2,4-D (MAb)
Experiment: fluorescence polarization titration of tracer with antibody
Format: binding

SMILES: O=C(COc1ccc(Cl)cc1Cl)NCCCCNC(=S)Nc1ccc(-c2c3ccc(=O)cc-3oc3cc(O)ccc23)c(C(=O)O)c1 [2,4-D-BDF, 2,4-D-buthylenediamin fluoresceinthiocarbamyl]
- Kd: 3.2 ± 0.5 nM

SMILES: O=C(COc1ccc(Cl)cc1Cl)NCC(=O)Nc1ccc(-c2c3ccc(=O)cc-3oc3cc(O)ccc23)c(C(=O)O)c1 [2,4-D-GAF, 2,4-D-glycine aminofluorescein]
- Kd: 3.7 ± 0.6 nM
